Where “and” joins values, the source holds several entries; their conditions need not be identical. Identical values can stand only once.
Experiments:
Apis mellifera = settings: acute, duration: 96 hours, mortality
Bibionidae = settings: chronic/long-term; duration: 28 days; development
Canidae = settings: subchronic; duration: 3 months; oral; gavage; Dog Other; organ weight
Chironomus tentans = settings: acute; duration: 10 days; mortality
Colinus virginianus = settings: for LD50: acute, oral, mortality
Cyprinodon variegatus = settings: chronic/long-term; duration: 41 days; mortality
Danio rerio = settings: chronic; duration: 148 days
Daphnia magna = settings: chronic/long-term; duration: 21 days; reproduction
Mus musculus = settings: acute, oral, mortality
Neomysis kadiakensis = settings: chronic/long-term; duration: 28 days; reproduction
Oncorhynchus mykiss = settings: mortality
Rattus norvegicus = settings: for NOAEL: reproduction developmental

N#Cc1ccc(CC(=NNC(=O)Nc2ccc(OC(F)(F)F)cc2)c2cccc(C(F)(F)F)c2)cc1 (mixture of isomers) [Metaflumizone]
LD50 (Anas platyrhynchos; acute, oral, unspecified, mortality): > 2020 mg/kg-day | NOEL (Anas platyrhynchos; reproductive, reproduction): < 4.4 mg/kg-day and 1.8 mg/kg-day | LD50 (Apis mellifera; dermal): 1.65 µg/piece | LD50 (Apis mellifera; oral, unspecified): 2.43 µg/piece | NOEC (Bibionidae): 2.56 µg/L | NOAEL (Canidae): 6 mg/kg-day | LC50 (Chironomus tentans): 1800 µg/kg | LD50 (Colinus virginianus; diet): 306 mg/kg-day | LD50 (Colinus virginianus): > 2020 mg/kg-day | NOEL (Colinus virginianus; reproduction developmental, reproduction): 0.53 mg/kg-day | NOEC (Cyprinodon variegatus): 1.15 µg/L | NOEC (Danio rerio): 0.015 mg/L | NOEC (Daphnia magna): 1.47 µg/L | LD50 (Mus musculus; duration: 7 days, diet): 101 mg/kg-day | LD50 (Mus musculus): > 5000 mg/kg-day | NOEC (Neomysis kadiakensis): 0.654 µg/L | LC50 (Oncorhynchus mykiss; acute, duration: 96 hours): > 0.228 mg/L | NOEC (Oncorhynchus mykiss; chronic/long-term, duration: 93 days): 1.47 µg/L | LD50 (Rattus norvegicus; acute, oral, mortality): > 5000 mg/kg-day | NOAEL (Rattus norvegicus; body weight): 40 mg/kg-day | NOAEL (Rattus norvegicus; reproduction): 20 mg/kg-day | LC50 (Tagia sp.; acute, duration: 14 days, mortality): > 1000 mg/kg | NOEC (Tagia sp.; chronic/long-term): 6.92 mg/kg
